The numbers were not newly measured in US12414928B2, “Viral inactivation spray and gargling formulation” (priority 2021, dated 2025), which cites them from elsewhere.

Series [1] concerns coronavirus disease 2019 (COVID-19).
The subject of another series is enveloped virus. The conditions noted are these: in vitro, pH 4.0.

As for `Cl` [Hydrochloric Acid], the virus inactivation in series [1] is reported as 100%.

`N=C(N)NCCC[C@H](N)C(=O)O` [L-Arginine]: the enveloped virus inactivation with enveloped virus is reported as 5 logs reduction.
